PubChem BioAssay (NCI)
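Exposure lasted 48 hours, with cells grown in 96-well plates and compounds tested at five concentrations. TGI marks complete inhibition of growth.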

What was measured:
Test in all cases: NCI tumour cell line growth inhibition, 48 h
LOX IMVI melanoma = system: LOX IMVI melanoma
UACC-257 melanoma = system: UACC-257 melanoma
K-562 leukemia = system: K-562 leukemia
UO-31 renal = system: UO-31 renal
CCRF-CEM leukemia = system: CCRF-CEM leukemia
786-0 renal = system: 786-0 renal
NCI-H226 lung = system: NCI-H226 lung
HT29 colon = system: HT29 colon
EKVX NSCLC = system: EKVX NSCLC
CAKI-1 renal = system: CAKI-1 renal
SK-MEL-5 melanoma = system: SK-MEL-5 melanoma
T-47D breast = system: T-47D breast
SK-MEL-28 melanoma = system: SK-MEL-28 melanoma
SN12C renal = system: SN12C renal
A498 renal = system: A498 renal
MDA-MB-435 = system: MDA-MB-435
U251 CNS = system: U251 CNS
COLO 205 colon = system: COLO 205 colon
DU-145 prostate = system: DU-145 prostate
HCT-116 colon = system: HCT-116 colon

Compound | TGI (LOX IMVI melanoma) [µM] | TGI (UACC-257 melanoma) [µM] | TGI (K-562 leukemia) [µM] | TGI (UO-31 renal) [µM] | TGI (CCRF-CEM leukemia) [µM] | TGI (786-0 renal) [µM] | TGI (NCI-H226 lung) [µM] | TGI (HT29 colon) [µM] | TGI (EKVX NSCLC) [µM] | TGI (CAKI-1 renal) [µM] | TGI (SK-MEL-5 melanoma) [µM] | TGI (T-47D breast) [µM] | TGI (SK-MEL-28 melanoma) [µM] | TGI (SN12C renal) [µM] | TGI (A498 renal) [µM] | TGI (MDA-MB-435) [µM] | TGI (U251 CNS) [µM] | TGI (COLO 205 colon) [µM] | TGI (DU-145 prostate) [µM] | TGI (HCT-116 colon) [µM]
CCN(CC)C(=S)SS(=O)(=O)c1ccccc1[N+](=O)[O-] | > 57 | > 60.6 | 50.4 | 31.2 | > 100 | 33.2 | > 93.8 | 50.4 | > 100 | 54.9 | 24.8 | > 100 | 49.9 | 56.6 | > 100 | 53.9 | > 56.2 | > 100 | > 66.5 | > 59.1
CN(C)Cc1cc(N=Nc2ccc(Cl)cc2)ccc1O | 23.5 | 32.7 | 35.2 | 24.5 | 36.7 | 25.8 | 30.3 | 26.4 | 33.8 | 32.2 | 27.6 | 28.3 | 29.6 | 33.1 | 31.8 | 30.3 | 31.1 | 13.8 | 48.1 | 31.2
COC(=O)[C@@H]1Cc2cc(O)c(O)cc2C2(CCN(C)CC2)O1 | > 10 | > 10 | – | – | > 10 | > 10 | > 10 | > 10 | > 10 | > 10 | > 10 | > 10 | > 10 | > 10 | > 10 | > 10 | > 10 | > 10 | > 10 | > 10
O=C(Nn1cnn2c(=O)c3ccccc3nc2c1=O)c1ccccc1 | > 100 | > 100 | > 100 | > 100 | > 100 | > 100 | > 100 | > 100 | > 100 | > 100 | > 100 | > 100 | > 100 | > 100 | > 100 | > 100 | > 100 | > 100 | > 100 | > 100
COC(=O)c1c(C(=O)OC)c2c3ccccc3n(C)c2c2c1c1ccccc1n2C | > 100 | > 100 | > 100 | > 100 | > 100 | > 100 | > 100 | > 100 | > 100 | > 100 | > 100 | > 100 | > 100 | > 100 | > 100 | > 100 | > 100 | > 100 | > 100 | > 100
CC(Oc1ccccc1Cl)C(=O)NN1C(=O)CSC1c1ccc(Cl)cc1 (stereo not given) | 39 | 45.1 | 30.6 | > 100 | 0.381 | 28.6 | 35.3 | 39.5 | 71.6 | 56.4 | 31.7 | 52.1 | 49.2 | 28 | 34.8 | 31.1 | 31.6 | 37.1 | 37.6 | 29.3
COc1ccc2nc3n(c2c1)C(c1c(Cl)cccc1Cl)SC3 (stereo not given) | > 100 | > 100 | > 100 | > 100 | > 100 | > 100 | > 100 | – | > 100 | > 100 | > 100 | > 100 | > 100 | > 100 | > 100 | > 100 | > 100 | > 100 | > 100 | > 100
Cc1cc(C)n(C(=O)CSc2nnc(SCC(=O)n3nc(C)cc3C)s2)n1 | > 100 | > 100 | > 100 | > 100 | > 100 | > 100 | > 100 | – | > 100 | > 100 | > 100 | > 100 | > 100 | > 100 | > 100 | > 100 | > 100 | > 100 | > 100 | > 100
CCCCCCCCCc1c(O)c(O)c(CCCCCCCCC)c(CCCCCCCCC)c1CCCCCCCCC | > 100 | > 100 | > 100 | – | 88.6 | > 100 | > 100 | > 100 | > 100 | > 100 | > 100 | > 100 | > 100 | > 100 | > 100 | > 100 | > 100 | > 100 | > 100 | > 100
C=C1CC(CN2CCC(=O)NC2=O)(c2ccccc2)OC1=O (stereo not given) | 16.7 | 30.8 | 10.9 | 32.3 | 4.92 | 15.6 | 34.3 | 25.3 | 40 | 7.57 | 24.8 | 11.7 | 27.3 | 33.4 | 37.6 | 23.6 | 32.1 | 6.25 | 30.1 | 12.2
CCC(=O)NCCc1c2c3c(ccnc3c3ncsc13)-c1ccccc1N2 | > 82.6 | > 94.9 | > 100 | > 100 | > 100 | > 55.4 | 16.7 | > 100 | > 100 | > 100 | 34.2 | > 100 | > 100 | > 100 | > 100 | > 64.5 | > 79.7 | > 100 | > 100 | 51.2
Cn1c(=O)oc2cc(Br)ccc21 | > 100 | > 100 | > 100 | > 100 | > 100 | > 100 | > 100 | > 100 | > 100 | > 100 | > 100 | > 100 | > 100 | > 100 | > 100 | > 100 | – | > 100 | > 100 | > 100
C=CCn1cnc2c(=O)[nH]c(Nc3ccccc3)nc21 | > 100 | > 100 | – | > 100 | > 100 | > 100 | > 100 | > 100 | > 100 | > 100 | > 100 | > 100 | > 100 | > 100 | > 100 | > 100 | > 100 | > 100 | > 100 | > 100
O=C(CN(c1ccc(S(=O)(=O)O)cc1)c1ccc(S(=O)(=O)O)cc1)Nn1cnc2ccc(S(=O)(=O)N(c3ccc(S(=O)(=O)O)cc3)c3ccc(S(=O)(=O)O)cc3)cc2c1=O | > 100 | > 100 | > 100 | > 100 | > 100 | > 100 | > 100 | > 100 | > 100 | > 100 | > 100 | > 100 | > 100 | > 100 | > 100 | > 100 | > 100 | > 100 | > 100 | > 100
COc1ccccc1NC(=S)Nc1cc(C)ccn1 | > 100 | > 100 | > 100 | > 100 | > 100 | > 100 | > 100 | > 100 | > 100 | > 100 | > 100 | > 100 | > 100 | > 100 | > 100 | > 100 | > 100 | > 100 | > 100 | > 100
COc1ncnc2c1cnn2Cc1cn(CCCCO)nn1 | > 100 | > 100 | > 100 | > 100 | > 100 | > 100 | > 100 | > 100 | > 100 | > 100 | > 100 | > 100 | > 100 | > 100 | > 100 | > 100 | > 100 | > 100 | > 100 | > 100
Nc1c(N2CCCCC2)c(=O)nc2[nH]/c(=C\c3ccccc3)c(=O)n12 | > 100 | > 100 | > 100 | > 100 | > 100 | > 100 | > 100 | > 100 | > 100 | > 100 | > 100 | > 100 | > 100 | > 100 | > 100 | > 100 | > 100 | > 100 | > 100 | > 100
CCOC(=O)c1[nH]c2nc(SC)nc(Nc3ccccc3Cl)c2c1N | 44.8 | > 100 | 40.5 | 42.7 | 46.8 | 46 | 70.2 | 47.1 | – | > 100 | 32.7 | 33.9 | > 100 | > 100 | 55.9 | > 100 | 31 | > 100 | 95.7 | > 100
CN(O)C(=S)c1ccccc1 | 7.76 | 57.8 | > 100 | 21.6 | 4.99 | 14.3 | > 100 | – | > 95.2 | 81.3 | 16.3 | > 100 | > 100 | > 55.4 | 68.2 | > 100 | > 100 | 1.75 | > 100 | 5.07
CC(=O)N=C1N(/C=C2\C(=O)Oc3ccccc3C2=O)C(=O)/C(=C/c2ccccc2Cl)N1C | > 100 | > 100 | > 100 | – | > 100 | > 100 | > 100 | > 100 | > 100 | > 100 | > 100 | > 100 | > 100 | > 100 | 96.7 | > 100 | > 100 | > 100 | > 100 | > 100
Cc1c(-c2ccccc2)c(C#N)c2nnn(-c3cccc(Cl)c3)c(=O)n12 | > 100 | > 100 | > 100 | – | > 100 | 86.6 | > 100 | > 100 | > 100 | > 100 | > 100 | > 100 | > 100 | > 100 | 98.5 | > 100 | > 100 | > 100 | > 100 | > 100
O=C(N/N=C(/COc1cccc(Cl)c1)N=Cc1cccnc1)c1ccncc1 | > 100 | > 100 | > 100 | – | > 100 | > 100 | > 100 | > 100 | > 100 | > 100 | – | > 100 | > 100 | > 100 | > 100 | > 100 | > 100 | > 100 | > 100 | > 100
COc1ccc(N2C(=O)/C(=C\c3cccc(Oc4ccccc4)c3)SC2c2ccccc2)cc1 (stereo not given) | > 100 | > 100 | > 100 | > 100 | 44.8 | > 100 | > 100 | – | > 100 | > 100 | > 100 | > 100 | > 100 | > 100 | > 100 | > 100 | > 100 | > 100 | > 100 | > 100
NC(=S)NS(=O)(=O)c1ccc(F)cc1F | > 100 | > 100 | > 100 | – | > 100 | > 100 | > 100 | > 100 | > 100 | > 100 | > 100 | > 100 | > 100 | > 100 | > 100 | > 100 | > 100 | > 100 | > 100 | > 100
